Source: patent publication US5843916A, “Cyclic amp analogues, individually and in pairs, to inhibit neoplastic cell growth” (priority 1994, dated 1998)
Read-outs that look alike come from different tables or passages of the source.

What was measured:
[1] = test system: breast and colon cancer lines (MCF-7, T-47D, ZR-75-1, MCF-7ras, MDA-MB-231, BT-20, HBL-100, LS-174T, WiDr, HT-29); experiment: Growth inhibition of breast and colon cancer lines (FIG. 1); type: cell-based, human; conditions: 0.5 mM, alone
[2] = test system: cultured human fibroblasts; conditions: cited from earlier work
[3] = test system: four leukemic cell lines (HL-60, K-562, myc-K562, Molt-4); experiment: Growth inhibition of leukemic cell lines; type: cell-based, human
[4] = test system: K-562; experiment: Growth inhibition of leukemic cells (Table 12); type: cell-based; conditions: Homo sapiens, K562
[5] = test system: HL-60; experiment: Growth inhibition of leukemic cells (Table 12); type: cell-based; conditions: Homo sapiens
[6] = test system: myc-K562; experiment: Growth inhibition of leukemic cells (Table 12); type: cell-based; conditions: Homo sapiens
[7] = test system: breast (MCF-7) and colon (LS-174T) cancer cell lines; experiment: Growth inhibition of breast and colon cancer cells (Table 1); type: cell-based, human; conditions: Homo sapiens
Description: The compounds of the present invention were added using 100X concentrated stock solutions. At desired times, cell counts in duplicate were performed on a Coulter counter after harvesting the cells with gentle trypsinization. […] Cell counts were performed on each of three or more separate experiments, and the average values are expressed as percent growth inhibition as compared with untreated control cells. | ^a The values of percentage growth inhibition were determined from th | doseresponse curve experiments. Each value represents an average value an | range (in parentheses) obtained from three or more separate experiments. | The cell counts in duplicate were performed at day 3 and day 4 after two | treatments (day 0 and day 2) with analogs (seeding on day -1).

[8] = test system: MCF-7ras breast cancer cell line; experiment: Synergistic growth inhibition by analogue combinations (Table 2); type: cell-based, human; conditions: footnote of Table 2
Description: All breast cancer cell lines were grown in IMEM supplemented with 10% fetal bovine serum, HEPES 20 mM, penicillin-streptomycin, and extra glutamine. Colon carcinoma cell lines were grown in EMEM supplemented with 10% FBS, EMEM, NEAA, HEPES 20 mM, extra glutamine, and penicillin-streptomycin. The cells were grown at 37° C. in humidified incubators in an atmosphere of 5% CO2.
For cell growth experiments, 2-3×10^5 cells/60 mm dish were seeded, and 24 hours later (Day 0), the medium was removed, and fresh medium and the additives were added then and every 48 hours thereafter. The compounds of the present invention were added using 100X concentrated stock solutions. At desired times, cell counts in duplicate were performed on a Coulter counter after harvesting the cells with gentle trypsinization.
Synergism quotient was defined as the net growth inhibitory effect of the analogue combination divided by the sum of the net analogue effects on growth inhibition. A quotient of >1 indicates a synergistic effect, while a quotient of <1 indicates an antagonistic effect.
Synergism of growth inhibition was determined by
treatment of cells with C-6 analogues and C-8 analogues alone
and in combination at Day 0 and Day 2 and counting the cell
^a Data are expressed as percentage growth inhibition in reference to
the growth of untreated control cells and represent average values and
ranges (in parentheses) of duplicate cell counts on three or more separat
experiments. The values for percentage growth inhibition of each analogue
^b The synergism quotient was defined as previously described.

[9] = test system: Molt-4; experiment: Growth inhibition of leukemic cells (Table 12); type: cell-based, human; conditions: Homo sapiens, MOLT-4; read-out: Inhibition of Growth IC50, Molt-4
[10] = test system: breast and colon cancer cells; experiment: Effect on cell morphology (FIG. 2); type: cell-based, human; conditions: 100 μM; three to four days
Source text: The photographs were taken on Day 4, ×160.
Furthermore, the synergistic growth inhibitory effect of C-6 and C-8 analogue combinations was also reflected in the change in the cell morphology.

[11] = test system: breast and colon cancer lines (MCF-7, T-47D, ZR-75-1, MCF-7ras, MDA-MB-231, BT-20, HBL-100, LS-174T, WiDr, HT-29); conditions: millimolar concentrations; previously reported; cited from earlier work
[12] = target: T1, Protein kinase type I (cAKI) (Oryctolagus cuniculus, UniProt G1TDN4); experiment: Protein kinase activation (Table 15); type: biochemical, rabbit (skeletal muscle)
T1 construct: prepared from rabbit skeletal muscle and bovine heart; from tissue; host or cells: rabbit skeletal muscle
T1 sequence (G1TDN4 1-381): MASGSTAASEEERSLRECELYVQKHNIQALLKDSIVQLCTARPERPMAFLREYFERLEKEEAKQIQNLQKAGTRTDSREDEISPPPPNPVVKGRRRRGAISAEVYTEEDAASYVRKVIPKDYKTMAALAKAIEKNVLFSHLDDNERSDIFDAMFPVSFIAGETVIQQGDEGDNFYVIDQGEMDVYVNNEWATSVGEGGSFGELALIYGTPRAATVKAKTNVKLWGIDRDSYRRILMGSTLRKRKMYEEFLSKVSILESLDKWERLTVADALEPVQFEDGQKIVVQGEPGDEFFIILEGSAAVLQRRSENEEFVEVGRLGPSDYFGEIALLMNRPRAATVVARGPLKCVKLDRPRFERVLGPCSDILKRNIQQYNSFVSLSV
Description: (§1) ATP to Kemptide as described by Ogreid et al., Eur. J. Biochem. 150: 219-227 (1985).
(§2) Protein kinases types I (cAKI) and II (cAKII) were
(§3) prepared from rabbit skeletal muscle and bovine heart,
(§4) respectively, as described in D.o slashed.skeland et al. (J. Biol.
(§5) of the protein kinase in Ogreid et al. (Eur. J. Biochem.

[13] = test system: HL-60 Cells; experiment: Cell cycle kinetics of HL-60 cells (Table 17); type: cell-based, human; conditions: for % G2 M / % G0-G1 / % S: 96 hours; for % G2 M: control 8.3; for % G0-G1: control 45.7; for % S: control 46
Description: (§6) Briefly, cells were fixed in 70% ethanol and stored at 4° C. before analysis. Nuclear DNA was stained with propidium iodide, 50 μg/ml in phosphate-buffered saline (pH 7.4), for 30 minutes at room temperature. RNase was added to avoid double-helix RNA staining. The DNA content of cells was analyzed by a FACScan flow cytometer coupled with a Hewlett-Packard computer. Cell cycle data analysis was performed by a Cell-FIT program according to the method of Dean (Cell Tissue Kinet. 13: 299-308 (1980)) (Becton Dickinson Immunocytometry Systems). Pulse area versus pulse width gating was performed to exclude doublets from the G2 -M region. For each sample, 20,000 events were stored in list mode. Cell surface antigen analysis was performed by flow cytometry with FACScan using a panel of monoclonal antibodies reactive with either monocytic or myeloid cells.

[14] = test system: LS-174T human colon carcinoma cells; experiment: Growth inhibition of LS-174T cells (Example 4, Table 18); type: cell-based
Description: LS-174T human colon carcinoma cells were obtained from the National Cancer Institute, Division of Cancer Treatment, Bethesda, Md., and were grown in Eagle's minimum essential medium supplemented with 10% heat-inactivated fetal bovine serum, Eagle's minimum essential medium nonessential amino acids, 20 mM 4-(2-hydroxyethyl)-1-piperazineethanesulfonic acid, 2mM glutamine, and penicillin-streptomycin (Gibco). The medium was changed every 48 hours.
LS-174T cells were seeded at a density of 2×10^5 / 60 mm dish. […] At desired times, cell counts were performed in duplicate on a Coulter Counter after harvesting cells with gentle trypsinization.
The percentage growth inhibition values shown at 10
and 50 μM analogue concentrations were determined from
the dose-response curve experiments like those shown in
FIG. 1 and represent an average value obtained for each
analogue from two or more separate experiments. Sp-6-SET-

[15] = target: T2, RII, regulatory subunit of cAMP-dependent protein kinase type II (Bos taurus, UniProt P00515); experiment: Binding affinity for RII (Table 14)
T2 construct: from tissue
T2 sequence (P00515 whole entry): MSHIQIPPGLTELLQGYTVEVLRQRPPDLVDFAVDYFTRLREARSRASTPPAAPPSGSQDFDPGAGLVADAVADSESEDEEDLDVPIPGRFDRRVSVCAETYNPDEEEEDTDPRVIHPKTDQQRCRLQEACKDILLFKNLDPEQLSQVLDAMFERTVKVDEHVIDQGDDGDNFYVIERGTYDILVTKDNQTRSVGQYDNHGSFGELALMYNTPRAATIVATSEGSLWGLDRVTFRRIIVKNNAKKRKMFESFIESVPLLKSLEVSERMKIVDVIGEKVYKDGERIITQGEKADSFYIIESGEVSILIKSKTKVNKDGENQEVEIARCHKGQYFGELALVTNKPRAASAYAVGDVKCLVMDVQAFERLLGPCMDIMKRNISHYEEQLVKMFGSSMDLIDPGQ
Description: (§7) RI and RII are the regulatory subunits of cAMP-dependent protein
(§8) kinase type I and type II, respectively. Site A (Site 2) and Site B
(§9) (RI and RII): the affinities of analogues for Site A and Site B were
(§10) determined by the measurement of kinetic constants (inhibition constant,
(§11) Ki), and the values are expressed as the relative affinity Ki
(§12) (analogue), i.e., the ratio between the apparent inhibition constant for
(§13) cAMP and the analogue, as described in Ogreid et al., Eur. J. Biochem.

[16] = target: T3, Protein kinase type II (cAKII) (Bos taurus, UniProt P00515); experiment: Protein kinase activation (Table 15); type: biochemical, bovine (heart)
T3 construct: prepared from rabbit skeletal muscle and bovine heart; from tissue; host or cells: bovine heart
T3 sequence (P00515 2-401 limits assumed): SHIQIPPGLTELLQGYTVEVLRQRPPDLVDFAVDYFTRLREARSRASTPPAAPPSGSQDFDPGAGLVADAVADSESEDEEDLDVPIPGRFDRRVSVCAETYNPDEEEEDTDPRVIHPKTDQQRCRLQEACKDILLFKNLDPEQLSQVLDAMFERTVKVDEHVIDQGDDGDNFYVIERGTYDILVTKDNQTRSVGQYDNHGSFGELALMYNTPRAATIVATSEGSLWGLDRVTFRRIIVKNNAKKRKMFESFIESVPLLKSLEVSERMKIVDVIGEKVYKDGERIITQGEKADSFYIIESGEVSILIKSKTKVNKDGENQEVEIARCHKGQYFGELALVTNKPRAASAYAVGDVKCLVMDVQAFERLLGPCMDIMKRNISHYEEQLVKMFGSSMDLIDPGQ
Description: as §1, §2, §3, §4, §5

[17] = test system: HL-60 leukemia cells; experiment: Surface antigen expression of HL-60 cells (Example 5); type: cell-based, human; conditions: 100 μM
Description: as §6
The effect of Rp- and Sp-8-Cl-cAMPS on the expression of differentiation markers in HL-60 cells was examined to determine if the growth-arrested HL-60 cells are more differentiated than untreated cells. […] For each sample, 2×10^4 cells were analyzed. Cell surface antigen analysis was performed by flow cytometry with FACScan. Cell gating was performed using forward and side scatter.

[18] = test system: HL-60 human leukemia cells; experiment: Growth inhibition of HL-60 leukemia cells (Example 3, Table 16); type: cell-based; conditions: for IC50: Homo sapiens
Description: HL-60 leukemic cells were obtained from the American Type Culture Collection (Rockville, Md.) and were grown in suspension culture in RPMI 1640 supplemented with 10% heat-inactivated fetal bovine serum, streptomycin (500 μg/ml), penicillin (50 units/ml), and glutamine (1 mM) (Gibco, Grand Island, N.Y.).
Cell counts were performed at desired times on a Coulter Counter.
The IC50 values were determined from the dose-
represent an average value obtained for each analogue
from two or more separate experiments carried out from 3
days or 6 days. Initial cell number, 1 × 10^5 /dish.
Typical numbers of untreated control cells at day 3 and
viability in treated and control cells.

[19] = target: T4, RI, regulatory subunit of cAMP-dependent protein kinase type I (Oryctolagus cuniculus, UniProt G1TDN4); experiment: Binding affinity for RI (Table 14)
T4 construct: from tissue
T4 sequence (G1TDN4 1-381): as the sequence (G1TDN4 1-381) above
Description: as §7, §8, §9, §10, §11, §12, §13

[20] = test system: disseminated neuroblastomas; conditions: combined drug regimen; cited from earlier work
[21] = test system: YAC lymphoma cell; conditions: mouse, in vivo; cited from earlier work
[22] = 72 h, 50 μM, day 3, average (range), read-out: % Growth Inhibition, Day 3
[23] = 96 h, 50 μM, day 4, average (range), read-out: % Growth Inhibition, Day 4
[24] = 50 micromolar, read-out: growth inhibition
[25] = half-maximum activation, U. M.: unmeasurable

## CC(C)Cn1c(=O)n(C)c(=O)c2[nH]cnc21 [1-methyl-3-isobutylxanthine]
[1]
  growth inhibitory effect: little or no growth inhibitory effect
[2]; added during first eight hours after serum addition
  DNA synthesis: not delayed
[2]; added more than eight hours after serum addition
  DNA synthesis: inhibitory
[3]; 0.5 mM, alone
  growth inhibitory effect: little or no growth inhibitory effect

## CNc1nc2c(N)ncnc2n1[C@@H]1O[C@@H]2COP(=O)(O)O[C@H]2[C@H]1O [8-methylamino-cAMP]
[4]
  IC50: 100 µM
[5]
  IC50: 100 µM
[3]; leukemic cell lines
  times less potent than 8-Cl-cAMP: 5-20 times
[6]
  IC50: 100 µM
[7]; [22]
  inhibition at 50 µM: 14%
[7]; [23]
  inhibition at 50 µM: 15%
[7]; [24]
  inhibition at 50 µM: ≤ 20%
[8]
  percentage growth inhibition of each analogue when added alone: 10%
[9]
  IC50: 100 µM

## CSc1nc2c(N)ncnc2n1[C@@H]1O[C@@H]2COP(=O)(O)O[C@H]2[C@H]1O [8-methylthio-cAMP]
[4]
  IC50: 100 µM
[5]
  IC50: 100 µM
[3]; leukemic cell lines
  times less potent than 8-Cl-cAMP: 5-20 times
[10]
  cell morphology: induced the morphological change
[6]
  IC50: 100 µM
[7]; [22]
  inhibition at 50 µM: 46%
[7]; [23]
  inhibition at 50 µM: 42%
[7]; [24]
  inhibition at 50 µM: 40 to 75%
[9]
  IC50: 100 µM

## O=C(Nc1ncnc2c1ncn2[C@@H]1O[C@@H]2COP(=O)(O)O[C@H]2[C@H]1O)c1ccccc1 [N^6 -benzoyl-cAMP]
[4]
  IC50: 45 µM
[5]
  IC50: 50 µM
[3]; Homo sapiens, leukemic cell lines, range
  IC50: 40 to 50 µM
[6]
  IC50: 50 µM
[7]; [22]
  inhibition at 50 µM: 30%
[7]; [23]
  inhibition at 50 µM: 28%
[8]
  percentage growth inhibition of each analogue when added alone: 10%
[9]
  IC50: 40 µM

## CCCC(=O)Nc1ncnc2c1ncn2[C@@H]1O[C@@H]2COP(=O)(O)O[C@H]2[C@H]1O [N^6 -butyryl-cAMP]
[7]; [22]
  inhibition at 50 µM: 0%
[7]; [23]
  inhibition at 50 µM: 0%
[11]
  growth inhibition: growth inhibition only in the hormone-dependent breast cancer lines

## Nc1ncnc2c1nc(Cl)n2[C@@H]1O[C@@H]2CO[P@](O)(=S)O[C@H]2[C@H]1O [Sp-8-Cl-cAMPS, Sp-(axial exocyclic sulfursubstitution) 8-chloro-adenosine 3': 5'-monophosphorothioate]
[12]; [25]
  Activation Constant (Ka), cAKI: 2.5 × 10^-7
[12]; vs 8-Cl-cAMP
  increase in the Ka for protein kinase type I vs 8-Cl-cAMP: 11 fold
[13]; 10 μM
  % G2 M: 8.9%
  % G0-G1: 46.8%
  % S: 44.3%
[13]; 50 μM
  % G2 M: 8.6%
  % G0-G1: 46%
  % S: 45.4%
[13]; 100 μM
  % G2 M: 9.0%
  % G0-G1: 56%
  % S: 35%
[13]; HL-60, 96 hours in Table 17
  cell cycle phase distribution: not appreciably different
[14]; Homo sapiens, LS174T
  inhibition at 10 µM: 20%
  inhibition at 50 µM: 40%
[14]; LS-174T
  growth inhibitory potency: moderate potency
[15]; Site A (Site 2)
  relative affinity Ki (cAMP)/Ki (analogue), RII Site A: 0.0023
[15]; Site B (Site 1)
  relative affinity Ki (cAMP)/Ki (analogue), RII Site B: 2.4
[15]; vs cyclophosphate
  decrease in affinity for Site A of RII vs corresponding cyclophosphate: 22 fold
  decrease in affinity for Site B of RII vs corresponding cyclophosphate: 1.9 fold
[16]; [25]
  Activation Constant (Ka), cAKII: 2.5 × 10^-7
[16]; vs 8-Cl-cAMP
  increase in the Ka for protein kinase type II vs 8-Cl-cAMP: 2.5 fold
[17]
  surface antigen expression: no appreciable effect on the surface antigen expression
[18]; HL-60, 72 h, read-out: Growth inhibition (IC50), Day 3
  IC50: 100 µM
[18]; HL-60, 144 h, read-out: Growth inhibition (IC50), Day 6
  IC50: 8 µM
[18]; growth inhibition HL-60, day 6
  fold less potent than 8-Cl-cAMP: 20 fold
[19]; Site A (Site 2)
  relative affinity Ki (cAMP)/Ki (analogue), RI Site A: 0.18
[19]; Site B (Site 1)
  relative affinity Ki (cAMP)/Ki (analogue), RI Site B: 0.037
[19]; vs cyclophosphate
  decrease in affinity for Site A of RI vs corresponding cyclophosphate: 15 fold
  decrease in affinity for Site B of RI vs corresponding cyclophosphate: 54 fold

## COc1ccc(Cc2nccc3cc(OC)c(OC)cc23)cc1OC [papaverine]
[20]
  clinical result: promising results

## cholera toxin
[21]
  inhibition of YAC lymphoma cell proliferation: almost complete inhibition of YAC lymphoma cell proliferation for up to four days
